In ChEMBL document CHEMBL1128919, “Synthesis and characterization of cyclic ATP-ribose: a potent mediator of calcium release” (Bioorg Med Chem Lett, 1996):

Organism: Rattus norvegicus
Experiment: Half-maximal effective dose for inducing [Ca2+] release from rat brain microsomes
Format: functional

## N=c1c2ncn3c2ncn1[C@@H]1O[C@H](COP(=O)(O)OP(=O)(O)OP(=O)(O)OC[C@H]2O[C@@H]3[C@H](O)[C@@H]2O)[C@@H](O)[C@H]1O
  ED50: 800 nM
